# According to PMC12649549, “Sequence Permutation Generated Lysine and Tryptophan-Rich Antimicrobial Peptides with Enhanced Therapeutic Index” (Antibiotics, 2025):
# Like-named read-outs stand apart in the source and are kept apart here.
# Experiments:
# [1] = tested on: Gram-negative bacteria; assay: Geometric mean MIC and therapeutic index, Gram-negative bacteria; type: cell-based; conditions: for Therapeutic Index (TI) G−: HC10/GM
# Protocol: (§1) In this study, we aimed to investigate the potential of W5K series peptides for therapeutic use. To evaluate their efficacy for antibacterial therapy, we used the Therapeutic Index (TI) as a measure of their cell selectivity. The TI was calculated as the ratio of the concentration causing 10% hemolysis of human red blood cells (HC10) to the geometric mean minimum inhibitory concentration (GM) of the peptides against both Gram-negative and Gram-positive bacteria. This parameter was used to quantitatively assess the balance between antibacterial potency and cytotoxicity among the W5K derivatives.
# (§2) The antibacterial activities of the peptides in Müller-Hinton (MH) broth and modified LYM broth were determined using the standard broth microdilution method as per Clinical and Laboratory Standards Institute (CLSI) guidelines. The LYM broth was prepared with specific components and adjusted to different conditions, including varying concentrations of NaCl and MgCl2, and different pH levels. To prepare the LYM broth, 5.4 mM KCl, 5.6 mM Na2HPO4, 0.5 mM MgSO4, and 1.0 mM sodium citrate were added. Additionally, 0.4 mg of ZnCl2, 2.0 mg of FeCl3·6H2O, 0.1 mg of CuSO4·5H2O, 0.1 mg of MnSO4·H2O, 0.1 mg of Na2B4O7∙10H2O, 700 mg of amino acid mixtures without tryptophan (Takara Bio Inc., San Jose, CA, USA), and 20 mg of L-tryptophan were added per liter of medium. The pH was adjusted to 7.4, and a vitamin mixture (100X, Sigma) and glucose concentration of 2% were added. For different conditions of LYM broth, NaCl concentrations of 300, 200, 150, and 50 mM, MgCl2 concentrations of 2.5, 1.5, and 0.5 mM, and pH levels of 6.5, 5.5, and 4.5 were adjusted. Bacterial strains were incubated in MH broth overnight, regrown, and diluted to a final concentration of 5 × 10^5 CFU/mL. Peptides were added to each well at final concentrations of 50, 25, 12.5, 6.25, 3.13, 1.56, and 0.78 µg/mL, and 99 µL of diluted microbes was loaded into each well of a polypropylene 96-well plate. […] The Morpheus HeatMap software (https://software.broadinstitute.org/morpheus/) was used to display MIC values on a color scale. All experiments were independently repeated three times.
# [2] = tested on: Both Gram-positive and -negative bacteria; assay: Geometric mean MIC, therapeutic index and fold changes of MIC, whole panel of strains; type: cell-based; conditions: for Therapeutic Index (TI) G−/+: HC10/GM, both Gram-positive and -negative bacteria; for weakening of antibacterial efficacy (MIC): LYM broth
# Protocol: as §1, §2
# [3] = tested on: S. aureus ATCC 33592
# Protocol: (§3) The antibacterial and salt-resistant activity of the peptides was tested using Escherichia coli (ATCC 25922), Pseudomonas aeruginosa Migula (ATCC 27853), Acinetobacter sp. (BCRC number 14B0091, BCRC number 14B0097, and BCRC number 14B0100), and Staphylococcus aureus sp. strains (ATCC 25923, ATCC 33591, ATCC 33592, ATCC 33593, and ATCC 6538). All bacteria were obtained from the Food Industry Research and Development Institute (Hsinchu, Taiwan) and cultured in sterilized Müller-Hinton (MH) broth at 37 °C and 200 rpm for 8 h. The inoculum concentrations were determined by measuring the optical density at 600 nm (OD 600 = 1, approximately 10^8 CFU/mL) using an Ultrospec 2100 pro UV-Visible spectrophotometer (Biochrom Ltd., Cambridge, UK) after 8 h of culture.
# as §2, with “For different conditions of LYM broth, NaCl concentrations of 300, 200, 150, and 50 mM, MgCl2 concentrations of 2.5, 1.5, and 0.5 mM, and pH levels of 6.5, 5.5, and 4.5 were adjusted.” left out
# [4] = tested on: S. aureus ATCC 33593
# Protocol: as §3, §2
# [5] = tested on: Escherichia coli (ATCC 25922)
# Protocol: as §3, §2
# [6] = tested on: Gram-positive bacteria; assay: Geometric mean MIC and therapeutic index, Gram-positive bacteria; type: cell-based; conditions: for Therapeutic Index (TI) G+: HC10/GM
# Protocol: as §1, §2
# [7] = LYM broth, 0 mM NaCl, 16 h, 37 °C
# [8] = LYM broth, 50 mM NaCl, 16 h, 37 °C
# [9] = LYM broth, 100 mM NaCl, 16 h, 37 °C
# [10] = LYM broth, 200 mM (NaCl), 16 h, 37 °C
# [11] = LYM broth, 300 mM (NaCl), 16 h, 37 °C
# [12] = MH broth, 5 × 10^5 CFU/mL, 16 h, 37 °C, repeated three times
substance,measurement,setting,value
Ac-AKKKKWRKWLKWL-NH2 [Peptide W5K10],GM G− (geometric mean of the MIC values),"[1]; Gram-negative bacteria, MH broth, MIC >50 µg/mL counted as 100 µg/mL",3.1 µg/mL
same,Therapeutic Index (TI) G−,[1]; Gram-negative bacteria,34.8
same,GM G−/+ (geometric mean of the MIC values),"[2]; Both Gram-positive and -negative bacteria, MH broth, MIC >50 µg/mL counted as 100 µg/mL",5.4 µg/mL
same,Therapeutic Index (TI) G−/+,[2],20.0
same,weakening of antibacterial efficacy (MIC),[2]; 300 mM NaCl,up to 4 fold
same,MIC,[3]; [7],3.13 µg/mL
same,MIC,"[3]; LYM broth, 0.5 mM MgCl2",3.13 µg/mL
same,MIC,"[3]; LYM broth, 1.5 mM MgCl2",3.13 µg/mL
same,MIC,"[3]; LYM broth, 2.5 mM MgCl2",3.13 µg/mL
same,MIC,[3]; [8],6.25 µg/mL
same,MIC,[3]; [9],6.25 µg/mL
same,MIC,[3]; [10],12.5 µg/mL
same,MIC,[3]; [11],25 µg/mL
same,MIC,"[3]; LYM broth, pH 4.5",3.13 µg/mL
same,MIC,"[3]; LYM broth, pH 5.5",3.13 µg/mL
same,MIC,"[3]; LYM broth, pH 6.5",3.13 µg/mL
same,MIC,[3]; [12],12.5 µg/mL
same,MIC,[4]; [7],3.13 µg/mL
same,MIC,"[4]; LYM broth, 0.5 mM MgCl2",3.13 µg/mL
same,MIC,"[4]; LYM broth, 1.5 mM MgCl2",3.13 µg/mL
same,MIC,"[4]; LYM broth, 2.5 mM MgCl2",6.25 µg/mL
same,MIC,[4]; [8],6.25 µg/mL
same,MIC,[4]; [9],6.25 µg/mL
same,MIC,[4]; [10],12.5 µg/mL
same,MIC,[4]; [11],25 µg/mL
same,MIC,"[4]; LYM broth, pH 4.5",6.25 µg/mL
same,MIC,"[4]; LYM broth, pH 5.5",3.13 µg/mL
same,MIC,"[4]; LYM broth, pH 6.5",3.13 µg/mL
same,MIC,[4]; [12],12.5 µg/mL
same,MIC,[5]; [7],3.13 µg/mL
same,MIC,"[5]; LYM broth, 0.5 mM MgCl2",3.13 µg/mL
same,MIC,"[5]; LYM broth, 1.5 mM MgCl2",6.25 µg/mL
same,MIC,"[5]; LYM broth, 2.5 mM MgCl2",6.25 µg/mL
same,MIC,[5]; [8],3.13 µg/mL
same,MIC,[5]; [9],12.5 µg/mL
same,MIC,[5]; [10],12.5 µg/mL
same,MIC,[5]; [11],25 µg/mL
same,MIC,"[5]; LYM broth, pH 4.5",3.13 µg/mL
same,MIC,"[5]; LYM broth, pH 5.5",1.56 µg/mL
same,MIC,"[5]; LYM broth, pH 6.5",1.56 µg/mL
same,MIC,[5]; [12],6.25 µg/mL
same,GM G+ (geometric mean of the MIC values),"[6]; Gram-positive bacteria, MH broth, MIC >50 µg/mL counted as 100 µg/mL",9.5 µg/mL
same,Therapeutic Index (TI) G+,[6]; Gram-positive bacteria,11.5
Ac-KKKKWRKWLKWLA-NH2 [Peptide W5K11],GM G− (geometric mean of the MIC values),[1],2.1 µg/mL
same,Therapeutic Index (TI) G−,[1]; Gram-negative bacteria,34.5
same,GM G−/+ (geometric mean of the MIC values),[2],3.3 µg/mL
same,Therapeutic Index (TI) G−/+,[2],21.2
same,weakening of antibacterial efficacy (MIC),[2]; 300 mM NaCl,up to 3 fold
same,weakening of antibacterial efficacy (MIC),[2]; MgCl2 rising above 0.5 mM,up to 2 fold
same,MIC,[3]; [7],3.13 µg/mL
same,MIC,"[3]; LYM broth, 0.5 mM MgCl2",3.13 µg/mL
same,MIC,"[3]; LYM broth, 1.5 mM MgCl2",3.13 µg/mL
same,MIC,"[3]; LYM broth, 2.5 mM MgCl2",3.13 µg/mL
same,MIC,[3]; [8],3.13 µg/mL
same,MIC,[3]; [9],3.13 µg/mL
same,MIC,[3]; [10],3.13 µg/mL
same,MIC,[3]; [11],6.25 µg/mL
same,MIC,"[3]; LYM broth, pH 4.5",3.13 µg/mL
same,MIC,"[3]; LYM broth, pH 5.5",3.13 µg/mL
same,MIC,"[3]; LYM broth, pH 6.5",1.56 µg/mL
same,MIC,[3]; [12],6.25 µg/mL
same,MIC,[4]; [7],3.13 µg/mL
same,MIC,"[4]; LYM broth, 0.5 mM MgCl2",3.13 µg/mL
same,MIC,"[4]; LYM broth, 1.5 mM MgCl2",3.13 µg/mL
same,MIC,"[4]; LYM broth, 2.5 mM MgCl2",3.13 µg/mL
same,MIC,[4]; [8],3.13 µg/mL
same,MIC,[4]; [9],3.13 µg/mL
same,MIC,[4]; [10],3.13 µg/mL
same,MIC,[4]; [11],6.25 µg/mL
same,MIC,"[4]; LYM broth, pH 4.5",3.13 µg/mL
same,MIC,"[4]; LYM broth, pH 5.5",1.56 µg/mL
same,MIC,"[4]; LYM broth, pH 6.5",1.56 µg/mL
same,MIC,[4]; [12],6.25 µg/mL
same,MIC,[5]; [7],1.56 µg/mL
same,MIC,"[5]; LYM broth, 0.5 mM MgCl2",3.13 µg/mL
same,MIC,"[5]; LYM broth, 1.5 mM MgCl2",3.13 µg/mL
same,MIC,"[5]; LYM broth, 2.5 mM MgCl2",3.13 µg/mL
same,MIC,[5]; [8],1.56 µg/mL
same,MIC,[5]; [9],3.13 µg/mL
same,MIC,[5]; [10],3.13 µg/mL
same,MIC,[5]; [11],6.25 µg/mL
same,MIC,"[5]; LYM broth, pH 4.5",1.56 µg/mL
same,MIC,"[5]; LYM broth, pH 5.5",1.56 µg/mL
same,MIC,"[5]; LYM broth, pH 6.5",1.56 µg/mL
same,MIC,[5]; [12],6.25 µg/mL
same,GM G+ (geometric mean of the MIC values),[6],5.4 µg/mL
same,Therapeutic Index (TI) G+,[6]; Gram-positive bacteria,13.0
